“Also recorded” adds a separate entry of the source. One block for each molecule: values may come before it.
How the values were obtained:
[1] = test system: increased intra ocular pressure model (retina of SD rats); assay: Pharmacological effect on an increased intra ocular pressure model (retinal layer thickness); type: in vivo, rat; conditions: for thickness of outer nuclear layer (ONL), Average / thickness of inner nuclear layer (INL), Average / thickness of inner plexus layer (IPL), Average: 5 μl of 0.1 mg/ml to the vitreous body; for cell death of inner granular cells due to increased intra ocular pressure (in words): overall conclusion of the example; for decrease of the thickness of the inner granular cell layer (INL) due to increased intra ocular pressure (in words) / decrease of the thickness of the inner plexus layer (IPL) due to increased intra ocular pressure (in words): compared to IOP increase load + PBS group, Student's t-test; for influence of administration on the outer nuclear layer (in words): rats with IOP increase load, pre- or post-administration to the vitreous body
From the text: The retinal nerve consists of the extraretinal granular layer, granule cells in the retina and the gangliocyte layer, and granule cells in the retina and the gangliocyte layer receive blood supply from the central retinal artery. When pressure is imposed on the anterior chamber, a load is imposed on the cribrosa lamina which is not covered with the sclera and the central retinal artery which extends through this area is occluded, and as a result, granule cells in the retina and the gangliocyte layer becomes ischemic, and cell death occurs.
The damage of granule cells in the retina can be readily evaluated as “the thickness of the inner nuclear layer (INL)” representing the change in number of the cells. Since the inner plexus layer, synapses between each neurons, is also damaged by the increase in the intra ocular pressure and made thinner, the thickness of the inner plexus layer (IPL) becomes an indicator to show the degree of damage. Therapeutic or preventive agents for retinal neuropathy having a suppressive effect have been explored using these two parameters as indices.
20 SD rats (6-week old) were used and divided into the following groups. • Sham operation (sometimes abbreviated as Sham ope hereinbelow): Five rats (Of these, 4 rats were used for analysis) • IOP (Intra Ocular pressure) treatment+PBS (5 μl was administered to the vitreous body): Five rats (Of these, 4 rats were used for analysis) • IOP (Intra Ocular pressure) treatment+test compound (5 μl was pre-administered to the vitreous body): Five rats (Of these, 4 rats were used for analysis) • IOP (Intra Ocular pressure) treatment+test compound (5 μl was post-administered to the vitreous body): Five rats (Of these, 4 rats were used for analysis) • (2) Increase in Intra Ocular Pressure
By the following steps, increased intra ocular pressure model animals were prepared and a drug (test compound) was administered thereto.
(i) A rat was set to a brain stereotaxic apparatus under anesthesia with […].
(ii) The head of the rat was fixed and an eyeball was pricked with a 26-G needle attached to the tip of a tube, which was connected to a sphygmomanometry device, into the rat anterior chamber and a load was imposed so that the inner pressure of the anterior chamber was 140 to 160 mmHg.
(iii) As for the timing of the administration of a drug into the vitreous body, the drug was administered 15 minutes before the intra ocular pressure increasing load for pre-administration, while the drug was administered 15 minutes after the intra ocular pressure increasing load for post-administration.
(iv) Increase in intra ocular pressure was maintained for one hour, and the rat was relieved from the brain anchor after the intra ocular pressure loading and ordinarily bred for one week.
(v) After sacrificed by suffocation with carbon dioxide, eyeballs were removed.
(vi) A paraffin section of the retina was prepared and dyed with 0.5% cresyl violet.
(vii) A histological image at a position 880 μm from the optic papilla (upper part of the retina) was photographed and the thicknesses of the outer nuclear layer (ONL), inner nuclear layer (INL) and inner plexus layer (IPL) were measured. • (3) Preparation of a Drug and Administration Method
SPF-3059-1 as a test substance was dissolved in PBS to a concentration of 1 mg/ml and further diluted with PBS to 0.1 mg/ml immediately before use. 5 μl of the diluted solution was administered to the vitreous body of the left eye of a rat with a 30G double needle. • (4) Significance Test
Intra ocular pressure was increased by the method of above (2) and significance tests were conducted by Student's t-test and Welch & F-test on the retinal protection effect of SPF-3059-1 administration in rats to which PBS was administered to the vitreous body.
Each of the thickness of outer nuclear layer, inner nuclear layer and inner plexus layer was measured using the retina of the rats in each treatment group, and a cytoprotective effect was evaluated. […]

[2] = test system: increased intra ocular pressure model (retina of SD rats); assay: as above; type: in vivo, rat; conditions: Example 2, 7-week old SD rats, 5 μl of 0.1 mg/ml to the vitreous body
[3] = Solubility (physico-chemical properties of the prepared compound); type: physicochemical
From the text: Each compound of the present invention is a known compound and is disclosed by WO02/09756 or WO03/062243 and can be produced from SPF-3059 strain which is a fungus belonging to the genus Penicillium. Production process and physico-chemical properties are described in the above international publication pamphlets. Specifically, the following compounds were respectively prepared. • (Compound SPF-3059-1) • Appearance: Yellow powder • High resolution fast atom bombardment mass spectrum • (HRFAB-MS) m/z (M+H)^+: • Observed value: 579.0772 • Calculated value: 579.0776 • Molecular formula: C28H18O14 • Ultraviolet visible absorption spectrum λ max (in methanol) nm(ε): […]

[4] = test system: cultured nerve cells; conditions: in a short period of time; as low as; cited from earlier work
[5] = Example 1, 6-week old SD rats, IOP increase load + test substance post-administration, one week after load
[6] = Example 1, 6-week old SD rats, IOP increase load + test substance pre-administration, one week after load
[7] = Example 2, 7-week old SD rats, IOP increase load + test substance post-administration
[8] = IOP increase load + test substance pre-administration

Molecule: CC(=O)c1c(C)c(C(=O)C2COc3cc(O)c(O)c(C(=O)O)c3C2=O)cc2c(=O)c3c(C(=O)O)c(O)c(O)cc3oc12 (centres unmarked) [SPF-3059-1]
thickness of outer nuclear layer (ONL), Average ([1]; Example 1, 6-week old SD rats, IOP increase load + test substance post-administration (15 minutes after load), one week after load): 45.56 μm
thickness of inner nuclear layer (INL), Average [1, 5]: 27.89 μm
thickness of inner plexus layer (IPL), Average [1, 5]: 40.45 μm
thickness of outer nuclear layer (ONL), Average ([1]; Example 1, 6-week old SD rats, IOP increase load + test substance pre-administration (15 minutes before load), one week after load): 45.79 μm
thickness of inner nuclear layer (INL), Average [1, 6]: 29.56 μm
thickness of inner plexus layer (IPL), Average [1, 6]: 46.89 μm
cell death of inner granular cells due to increased intra ocular pressure (in words) [1]: suppressed
decrease of the thickness of the inner granular cell layer (INL) due to increased intra ocular pressure (in words) ([1]; post-administration): tends to be suppressed; also recorded: suppressing tendency
decrease of the thickness of the inner plexus layer (IPL) due to increased intra ocular pressure (in words) ([1]; post-administration): tends to be suppressed; also recorded: suppressing tendency
decrease of the thickness of the inner granular cell layer (INL) due to increased intra ocular pressure (in words) ([1]; pre-administration): suppressed significantly; also recorded: suppressing effect
decrease of the thickness of the inner plexus layer (IPL) due to increased intra ocular pressure (in words) ([1]; pre-administration): suppressed significantly; also recorded: suppressing effect
influence of administration on the outer nuclear layer (in words) [1]: does not have an influence

Molecule: CC(=O)c1cc2c(=O)c3c(C(=O)O)c(O)c(O)cc3oc2c(C(C)=O)c1-c1coc2cc(O)c(O)c(C(=O)O)c2c1=O [SPF-3059-5]
thickness of inner nuclear layer (INL), Average [1, 7]: 36.76 μm
thickness of inner plexus layer (IPL), Average [1, 7]: 55.15 μm
cell death of inner granular cells due to increased intra ocular pressure (in words) [1]: suppressed
decrease of the thickness of the inner granular cell layer (INL) due to increased intra ocular pressure (in words) ([1]; post-administration): shown statistically significantly
decrease of the thickness of the inner plexus layer (IPL) due to increased intra ocular pressure (in words) ([1]; post-administration): suppressed significantly
decrease of the thickness of the inner granular cell layer (INL) due to increased intra ocular pressure (in words) ([1]; pre-administration): tends to be suppressed; also recorded: suppressing tendency
decrease of the thickness of the inner plexus layer (IPL) due to increased intra ocular pressure (in words) ([1]; pre-administration): suppressed significantly; also recorded: suppressing effect
influence of administration on the outer nuclear layer (in words) [1]: does not have an influence
thickness of outer nuclear layer (ONL), Average ([2]; IOP increase load + test substance post-administration): 61.76 μm
thickness of inner nuclear layer (INL), Average [2, 8]: 33.09 μm
thickness of inner plexus layer (IPL), Average [2, 8]: 55.88 μm
thickness of outer nuclear layer (ONL), Average [2, 8]: 60.29 μm

Solubility ([3]; in DMSO): soluble
Solubility ([3]; in hexane): Insoluble
Solubility ([3]; in methanol): soluble
Solubility ([3]; in water): Insoluble
Molecule: CC(=O)c1cc2c(=O)c3c(C(=O)O)c(O)c(O)cc3oc2c(C(C)=O)c1-c1coc2cc(O)c(O)cc2c1=O [SPF-3059-24]

B1: semaphorin 3A: endogenous protein which collapses the nerve growth cone and suppresses axon elongation (protein, UniProt Q14563 21-771, looked up)
Semaphorin-3A: NYQNGKNNVPRLKLSYKEMLESNNVITFNGLANSSSYHTFLLDEERSRLYVGAKDHIFSFDLVNIKDFQKIVWPVSYTRRDECKWAGKDILKECANFIKVLKAYNQTHLYACGTGAFHPICTYIEIGHHPEDNIFKLENSHFENGRGKSPYDPKLLTASLLIDGELYSGTAADFMGRDFAIFRTLGHHHPIRTEQHDSRWLNDPKFISAHLISESDNPEDDKVYFFFRENAIDGEHSGKATHARIGQICKNDFGGHRSLVNKWTTFLKARLICSVPGPNGIDTHFDELQDVFLMNFKDPKNPVVYGVFTTSSNIFKGSAVCMYSMSDVRRVFLGPYAHRDGPNYQWVPYQGRVPYPRPGTCPSKTFGGFDSTKDLPDDVITFARSHPAMYNPVFPMNNRPIVIKTDVNYQFTQIVVDRVDAEDGQYDVMFIGTDVGTVLKVVSIPKETWYDLEEVLLEEMTVFREPTAISAMELSTKQQQLYIGSTAGVAQLPLHRCDIYGKACAECCLARDPYCAWDGSACSRYFPTAKRRTRRQDIRNGDPLTHCSDLHHDNHHGHSPEERIIYGVENSSTFLECSPKSQRALVYWQFQRRNEERKEEIRVDDHIIRTDQGLLLRSLQQKDSGNYLCHAVEHGFIQTLLKVTLEVIDTEHLEELLHKDDDGDGSKTKEMSNSMTPSQKVWYRDFMQLINHPNLNTMDEFCEQVWKRDRKQRRQRPGHTPGNSNKWKHLQENKKGRNRRTHEFERAPRSV
concentration inducing growth cone collapse of the cultured nerve cells [4]: 10 pM

From patent US20110105599A1, “THERAPEUTIC OR PREVENTIVE AGENTS FOR ISCHEMIC NEUROPATHY” (Dainippon Sumitomo Pharma Co., Ltd., priority 2003, published 2011)
